Reference: article PMC8896685 (PLoS ONE, 2022)
Numbered stars: 1 amine (or outer) side, 2 acyl side, 3 side chain; on linkers, the order of the positions; unused ones are H or OH. Square brackets hold non-standard residues; d marks the D form. Side chains are listed from the residue outwards. Peptide text beside a SMILES is read from it. * marks the point of attachment. C18 diacid = O=C(O)CCCCCCCCCCCCCCCCC(=O)*; γGlu = O=C(O)[C@H](CCC(=O)[*:2])N[*:1]; Desaminohistidyl = O=C(CCc1c[nH]cn1)*; Ac4c = NC1(C(=O)O)CCC1; AEEA = NCCOCCOCC(=O)O; Aib = CC(C)(N)C(=O)O

Columns and labels:
Mouse GCGR = biological target: T1, Mouse GCGR (Mus musculus, UniProt Q61606); assay: Receptor potency, CRE-luciferase functional assay in BHK cells; type: cell-based; settings: Mouse receptors, whole BHK cells, 3 h 37°C, value (95% CI)
T1 construct: a plasmid encoding either the glucagon receptor or the GLP-1 receptor from the relevant species; expressed in transfected cells
T1 sequence (Q61606 27-485): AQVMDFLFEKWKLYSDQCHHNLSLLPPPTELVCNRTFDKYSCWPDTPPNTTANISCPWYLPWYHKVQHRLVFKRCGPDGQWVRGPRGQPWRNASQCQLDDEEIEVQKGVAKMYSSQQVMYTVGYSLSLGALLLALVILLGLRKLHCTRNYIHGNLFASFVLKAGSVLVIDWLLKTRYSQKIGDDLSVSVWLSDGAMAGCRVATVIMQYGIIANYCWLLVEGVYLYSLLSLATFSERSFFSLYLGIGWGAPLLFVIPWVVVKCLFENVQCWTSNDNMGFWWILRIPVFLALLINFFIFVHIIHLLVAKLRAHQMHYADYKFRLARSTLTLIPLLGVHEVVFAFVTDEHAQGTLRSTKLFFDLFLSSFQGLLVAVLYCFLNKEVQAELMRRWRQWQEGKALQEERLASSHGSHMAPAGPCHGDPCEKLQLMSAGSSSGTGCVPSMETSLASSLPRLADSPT
Experimental: The binding assay was performed on cell membranes in the presence of 1% (v/v) species-specific heparin-treated pooled plasma (Bioreclamation IVT, Westbury, NY) diluted in assay buffer (50 mM HEPES supplemented with 5 mM EGTA, 5 mM MgCl2, and 0.005% (v/v) Tween 20, pH7.4). […] Cells stably expressing an individual receptor of interest were grown at 5% CO2, 37°C in DMEM (supplemented with 10% FCS, 0.5 mg/ml G418 and 0.3 mg/ml hygromycin). Membrane preparations were made from cells harvested at approximately 80% confluence, washed and homogenized in 20 mM HEPES with 0.1 mM EDTA, pH 7.4. Protein concentration was determined, and the membranes were stored at -80°C until use. The membrane binding assay was performed in a 96-well OptiPlate (PerkinElmer) in a total volume of 200 μl. Test compounds were dissolved in 80% DMSO and further diluted in assay buffer. 50 μl of diluted plasma was added to the assay plate wells followed by addition of test compounds (25 μl), cell membranes (50 μl, 0.06 mg/ml), SPA beads (20 mg/ml in assay buffer) and radioligand (60,000 cpm/well, corresponding to 0.06 nM; 2200 Ci/mmol. Each assay plate was incubated for 2 h at 30°C, centrifuged at 1500 rpm for 10 minutes and counted in a TopCount NXT instrument (PerkinElmer).
Functional assays were performed on whole cells in the absence or presence of 100% species-specific heparin-treated pooled plasma (Bioreclamation IVT). […] The cells were cultured with DMEM (supplemented with GlutaMAX, 10% FBS, 0.5 mg/ml G418 and 0.3 mg/ml hygromycin) at 5% CO2 and 37°C. At approximately 80–90% confluence, cells were washed with PBS and harvested with Versene (Life Technologies, Carlsbad, CA). The cells were counted and plated into 96-well microtiter plates coated with poly-D-Lys (Corning BioCoat) with 5,000 cells/well and thereafter incubated overnight in growth media. The next day the media was changed to assay buffer (DMEM without phenol red, supplemented with GlutaMAX, 10 mM HEPES, 1% ovalbumin and 0.1% Pluronic F-68) or to 100% plasma. In the absence of plasma, compounds were diluted in assay buffer. In assays tested with plasma, compounds were diluted in pure plasma. Buffer was removed from the plates and 50 μl of test compound dilutions was added to the plates followed by 50 μl of plasma or the same buffer used for compound dilution. The assay plates were incubated for 3 h in a 5% CO2 incubator at 37°C. The plates were then transferred to room temperature for 15 min and 100 μl Steadylite Plus reagent (PerkinElmer) was added to each well. The plates were shaken for 30 min at room temperature while protected from light after which luminescence was measured.
For the receptor binding assays, logIC50 values were calculated using non-linear regression analysis. The error estimation was reported as the 95% confidence interval. […] The calculations were performed in GraphPad Prism 6.4 (GraphPad, San Diego, CA) and error estimation was expressed as the 95% confidence interval. […] Averages, error estimation, ratios and plasma shifts were all calculated on logIC50 or logEC50 values and transformed to the anti-log values for reporting purposes.

DIO mice = assay: Subchronic effect on body weight, body composition and food intake in DIO mice; type: in vivo, mouse
From the text: Male C57Bl/6J mice were purchased from Jackson Lab (Bar Harbour, ME) or Taconic, (Denmark). Male Sprague Dawley rats were purchased from Taconic (Denmark). Lean animals were fed regular chow diet (Altromin 1324, Brogaarden, Denmark). Obese animals were fed a high-fat diet, 45% kcal from fat (D12492, Research Diets, New Brunswick, NJ) from the age of 4–6 weeks in order to obtain a diet induced obese (DIO) phenotype. Animals were housed under temperature and humidity-controlled conditions in a 12:12 hr light:dark cycle (lights on at 6 a.m.). Rats were housed three per cage during high fat feeding and were single housed five weeks prior to study. Mice were single housed, two per cage, with a partitioning wall where possible. All animals had ad libitum access to diet and water, except when fasted prior to experimental procedures. Animals were acclimatized to study conditions (energy expenditure cages, daily mock handling etc) at least one week prior to first dose. […] At the time of study, animals were 20–30 weeks old with a body weight of 45–50 g (DIO mice) or approximately 600 g (DIO rats).
DIO mice received s.c. injections once daily for 4–5 weeks. Animals were dosed at different times of day to allow for assessment of glucose tolerance and other metabolic parameters at same time of day but at different time points in relation to dosing. […] Body composition was assessed in conscious animals by Magnetic Resonance (MR) scanning prior to initiation of treatment and at the end of the treatment period. Steady-state plasma parameters were assessed in non-fasted animals. Additional DIO mice (n = 4) were included for verification of 24-h peptide exposure in steady state. The mice received s.c. doses daily for 2 weeks (13 days) with 3 nmol/kg NN1177; 5 nmol/kg NN1151 or 5 nmol/kg NN1359, where after plasma sampled after t = 5 h (NN1177) or 6 h (NN1151, NN1359), 10 h (all co-agonists) and 24 h (all co-agonists) post-dosing was analysed for exposure.
Analogues were tested for subchronic effect in two different set-ups. […] The Cmax and Cmin animals were included in separate treatment groups and evaluated head-to-head for glucose tolerance and additional metabolic parameters at the end of the treatment period. […] IPGTT was performed as described above, but additionally blood was sampled from vena facialis of conscious animals at t = 210 min relative to the administration of glucose for exposure analysis.
IPGTT was performed as described above.
All in vivo data are presented as mean ±SEM. […] For the comparison of NN1177, NN1151 and NN1359 on glucose tolerance, vehicle-subtracted values were used to enable comparison across studies.

[1] = GCGR EC50, pM (95% CI) 0% plasma, 0% plasma
[2] = GCGR EC50, pM (95% CI) 100% plasma, 100% species-specific plasma

Q: Which EC50 (Mouse GCGR; [1]) does the source give for CC(C)C[C@H](NC(=O)[C@H](Cc1ccc(O)cc1)NC(=O)[C@H](CCCCN)NC(=O)[C@H](CO)NC(=O)[C@H](CC(C)C)NC(=O)[C@H](CC(=O)O)NC(=O)[C@H](CO)NC(=O)[C@@H](NC(=O)[C@H](Cc1ccccc1)NC(=O)[C@@H](NC(=O)CNC(=O)[C@H](CCC(N)=O)NC(=O)C(C)(C)NC(=O)[C@@H](N)Cc1c[nH]cn1)[C@@H](C)O)[C@@H](C)O)C(=O)N[C@@H](CCC(=O)O)C(=O)N[C@@H](CO)C(=O)N[C@@H](CCCCN)C(=O)N[C@@H](CCCNC(=N)N)C(=O)N[C@@H](C)C(=O)N[C@@H](CCCNC(=N)N)C(=O)N[C@@H](CCC(=O)O)C(=O)N[C@@H](Cc1ccccc1)C(=O)N[C@H](C(=O)N[C@@H](CCC(N)=O)C(=O)N[C@@H](Cc1c[nH]c2ccccc12)C(=O)N[C@@H](CC(C)C)C(=O)N[C@@H](CC(C)C)C(=O)N[C@@H](CCCCNC(=O)CC[C@H](NC(=O)CC[C@H](NC(=O)[C@H](CO)NC(=O)[C@H](CCC(=O)O)NC(=O)[C@H](CO)NC(=O)CC[C@H](NC(=O)CC[C@H](NC(=O)CCCCCCCCCCCCCCCCC(=O)O)C(=O)O)C(=O)O)C(=O)O)C(=O)O)C(=O)N[C@H](C(N)=O)[C@@H](C)O)C(C)C [NN1177] (H-H[Aib]QGTFTSDLSKYLESKRAREFVQWLLK([γGlu-γGlu-Ser-Glu-Ser-γGlu-γGlu-C18 diacid])T-NH2) here?
A: Its EC50 is 1.96 pM.

Q: And the EC50 (Mouse GCGR; [2])?
A: The EC50 was 103 pM.

Q: And the Body weight reduction (DIO mice; 3–5 nmol/kg s.c. once daily, 5 weeks)?
A: Its Body weight reduction is 22–33%.

Q: How did the EC50 (Mouse GCGR; [2]) turn out when CC(C)C[C@H](NC(=O)[C@H](CC(C)C)NC(=O)[C@H](Cc1c[nH]c2ccccc12)NC(=O)[C@H](CCC(N)=O)NC(=O)[C@@H](NC(=O)[C@H](Cc1ccccc1)NC(=O)[C@H](CCC(=O)O)NC(=O)[C@H](CCCNC(=N)N)NC(=O)[C@H](C)NC(=O)[C@H](C)NC(=O)[C@H](CCCNC(=N)N)NC(=O)[C@H](CO)NC(=O)[C@H](CC(=O)O)NC(=O)[C@H](CC(C)C)NC(=O)[C@H](Cc1ccc(O)cc1)NC(=O)[C@H](CCCCN)NC(=O)[C@H](CO)NC(=O)[C@H](CC(C)C)NC(=O)[C@H](CC(=O)O)NC(=O)[C@H](CO)NC(=O)[C@@H](NC(=O)[C@H](Cc1ccccc1)NC(=O)[C@@H](NC(=O)CNC(=O)[C@H](CCC(=O)O)NC(=O)C(C)(C)NC(=O)[C@@H](N)Cc1c[nH]cn1)[C@@H](C)O)[C@@H](C)O)C(C)C)C(=O)N[C@@H](CC(N)=O)C(=O)N[C@@H](CCCCNC(=O)CC[C@H](NC(=O)CC[C@H](NC(=O)COCCOCCNC(=O)COCCOCCNC(=O)CC[C@H](NC(=O)CCCCCCCCCCCCCCCCC(=O)O)C(=O)O)C(=O)O)C(=O)O)C(N)=O [GLP-1 reference] (H-H[Aib]EGTFTSDLSKYLDSRAAREFVQWLLNK([γGlu-γGlu-AEEA-AEEA-γGlu-C18 diacid])-NH2) was run?
A: The EC50 was 442000 pM.

Q: And the Body weight reduction (DIO mice; 5 nmol/kg s.c. once daily, 4–5 weeks, p<0.001)?
A: The Body weight reduction was 10%-17%.

Q: Which EC50 (Mouse GCGR; [1]) does the source give for CC[C@H](C)[C@H](NC(=O)[C@H](Cc1ccccc1)NC(=O)[C@H](CCC(=O)O)NC(=O)[C@H](CCCNC(=N)N)NC(=O)[C@H](C)NC(=O)[C@H](C)NC(=O)[C@H](CCC(N)=O)NC(=O)[C@H](CCC(=O)O)NC(=O)[C@H](CCC(=O)O)NC(=O)[C@H](CC(C)C)NC(=O)[C@H](Cc1ccc(O)cc1)NC(=O)[C@H](CCCCN)NC(=O)[C@H](CO)NC(=O)[C@@H](NC(=O)[C@H](CC(=O)O)NC(=O)[C@H](CO)NC(=O)[C@@H](NC(=O)[C@H](Cc1ccccc1)NC(=O)[C@@H](NC(=O)CNC(=O)[C@H](Cc1c[nH]cn1)NC(=O)C(C)(C)NC(=O)CCc1c[nH]cn1)[C@@H](C)O)[C@@H](C)O)C(C)C)C(=O)N[C@@H](C)C(=O)N[C@@H](Cc1c[nH]c2ccccc12)C(=O)N[C@@H](CC(C)C)C(=O)N[C@@H](CC(C)C)C(=O)N[C@@H](CCCCNC(=O)COCCOCCNC(=O)COCCOCCNC(=O)CC[C@H](NC(=O)CC[C@H](NC(=O)CCCCCCCCCCCCCCCCC(=O)O)C(=O)O)C(=O)O)C(=O)N[C@H](C(N)=O)[C@@H](C)O [NN1359] (Desaminohistidyl-[Aib]HGTFTSDVSKYLEEQAAREFIAWLLK([AEEA-AEEA-γGlu-γGlu-C18 diacid])T-NH2) here?
A: Its EC50 is 29.7 pM.

Q: And the EC50 (Mouse GCGR; [2])?
A: The EC50 was 2540 pM.

Q: And the Body weight loss (DIO mice; 1–30 nmol/kg s.c. once daily, 4 weeks, plateau during last weeks)?
A: Its Body weight loss is 10–30%.

Q: Which EC50 (Mouse GCGR; [2]) does the source give for CC(C)C[C@H](NC(=O)[C@H](CC(=O)O)NC(=O)[C@H](CC(C)C)NC(=O)[C@H](Cc1ccc(O)cc1)NC(=O)[C@H](CCCCN)NC(=O)[C@H](CO)NC(=O)[C@H](CC(C)C)NC(=O)[C@H](CC(=O)O)NC(=O)[C@H](CO)NC(=O)[C@@H](NC(=O)[C@H](Cc1ccccc1)NC(=O)[C@@H](NC(=O)CNC(=O)[C@H](CCC(N)=O)NC(=O)C1(NC(=O)[C@@H](N)Cc2c[nH]cn2)CCC1)[C@@H](C)O)[C@@H](C)O)C(=O)N[C@@H](CCCNC(=N)N)C(=O)N[C@@H](CCCNC(=N)N)C(=O)N[C@@H](C)C(=O)N[C@@H](CCCNC(=N)N)C(=O)N[C@@H](CC(=O)O)C(=O)N[C@@H](Cc1ccccc1)C(=O)N[C@H](C(=O)N[C@@H](CCC(N)=O)C(=O)N[C@@H](Cc1c[nH]c2ccccc12)C(=O)N[C@@H](CC(C)C)C(=O)N[C@@H](CC(C)C)C(=O)N[C@@H](CCCCNC(=O)CC[C@H](NC(=O)CC[C@H](NC(=O)COCCOCCNC(=O)COCCOCCNC(=O)CC[C@H](NC(=O)CC[C@H](NC(=O)CCCCCCCCCCCCCCCCC(=O)O)C(=O)O)C(=O)O)C(=O)O)C(=O)O)C(=O)N[C@H](C(N)=O)[C@@H](C)O)C(C)C [NN1151] (H-H[Ac4c]QGTFTSDLSKYLDLRRARDFVQWLLK([γGlu-γGlu-AEEA-AEEA-γGlu-γGlu-C18 diacid])T-NH2) here?
A: The EC50 was 60.3 pM.

Q: What about the “Effect on body weight” value (DIO mice; 1 nmol/kg s.c. once daily, 4 weeks) of the same compound?
A: Its value is “No effect”.

Q: And the “Effect on body weight / tolerated weight loss” value (DIO mice; 10 and 30 nmol/kg s.c. once daily, maximum ethically tolerated weight loss reached)?
A: Its value is “majority of mice had to be terminated prematurely”.
